In ChEMBL document CHEMBL4715792, “In Vivo and In Vitro Optimization of Screening Antimalarial Hits toward Lead Molecules for Preclinical Development” (J Med Chem, 2016):
In brackets after ≈: the same amount, converted by molar mass. Each block holds one compound with its values, some of them ahead of it.

Assays:
[1] = Intrinsic clearance in mouse liver microsomes; assay type: ADME, Microsome
Plasmodium falciparum [2] = test: Antimalarial activity against drug resistant Plasmodium falciparum D6; assay type: functional, organism-based
Plasmodium falciparum [3] = test: Antimalarial activity against drug resistant Plasmodium falciparum 7G8; assay type: functional, organism-based
Plasmodium falciparum [4] = test: Antimalarial activity against drug resistant Plasmodium falciparum V1/S; assay type: functional, organism-based
Plasmodium berghei [5] = test: Antimalarial activity against Plasmodium berghei infected in mouse assessed as reduction in parasitemia at 1 mg/kg, po dosed 4 times; assay type: functional
Plasmodium falciparum [6] = test: Antimalarial activity against Plasmodium falciparum 3D7; assay type: functional, organism-based
Plasmodium falciparum [7] = test: Antimalarial activity against drug resistant Plasmodium falciparum TM90C2A; assay type: functional, organism-based
Plasmodium falciparum [8] = test: Antimalarial activity against drug resistant Plasmodium falciparum W2; assay type: functional, organism-based
Plasmodium falciparum [9] = test: Antimalarial activity against drug resistant Plasmodium falciparum NF5; assay type: functional, organism-based
Plasmodium falciparum [10] = test: Antimalarial activity against drug resistant Plasmodium falciparum K1; assay type: functional, organism-based
Plasmodium berghei [11] = test: Antimalarial activity against Plasmodium berghei infected in orally dosed mouse assessed as reduction in parasitemia; assay type: functional; details: po
[12] = Aqueous solubility of compound; assay type: physicochemical
[13] = Selectivity index, ratio of CC50 for human MRC5 cells to EC50 for antimalarial activity against Plasmodium falciparum 3D7; assay type: toxicity; details: read-out: Selectivity Index

Compound: O=C(NCCN1CCCC1)c1cc(-c2ccc(CN3CCOCC3)cc2)nc2ccc(F)cc12 [CABAMIQUINE]
Intrinsic clearance [1]: < 0.9 mL/min/g
EC50 (Plasmodium falciparum [2]): < 1 nM
EC50 (Plasmodium falciparum [3]): < 1 nM
EC50 (Plasmodium falciparum [4]): < 1 nM
inhibition in vivo at 1 mg/kg (Plasmodium berghei [5]): > 99%
EC50 (Plasmodium falciparum [6]): 1 nM
EC50 (Plasmodium falciparum [7]): < 1 nM
EC50 (Plasmodium falciparum [8]): < 1 nM
EC50 (Plasmodium falciparum [9]): < 1 nM
EC50 (Plasmodium falciparum [10]): < 1 nM
ED90 (Plasmodium berghei [11]): 0.3 mg/kg

solubility [12]: 36 µM (≈ 12.9 µg/mL)
Intrinsic clearance [1]: 8.6 mL/min/g
Compound: Cc1ccc(-c2cc(C(=O)Nc3cccnc3)c3cc(F)ccc3n2)cc1

solubility [12]: ≤ 39 µM
Intrinsic clearance [1]: >= 5 ml/min/g
Compound: Cc1ccc(-c2cc(C(=O)Nc3cccnc3)c3cc(Br)ccc3n2)cc1
selectivity ratio [13]: > 100

Intrinsic clearance [1]: 3.4 mL/min/g
EC50 (Plasmodium falciparum [6]): 700 nM
Compound: Cc1ccc(-c2cc(C(=O)NCCN3CCCC3)c3cc(F)ccc3n2)cc1
